Measured values from PubChem BioAssay AID1918937 (Molecular Pharmacology Branch, DTP, NCI, 2023).
Values joined by “and” are separate entries in the source; they are usually repeats but may differ in a detail not shown here. Equal values may be shown once.

Tested on: 521955-158-R2-J5-PDC complex spheroid viability
Experiment: Anticancer human tumor 521955-158-R2-J5-PDC patient-derived pancreatic carcinoma cell line growth inhibition
Conditions: for viability, T/C: stronger effect = lower value
Method in brief: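 Drug combinations with the LSD1 inhibitor iadademstat tested on tumor cells co-cultured as spheroids with endothelial cells and mesenchymal stem cells. Concentrations descended in half-log increments from clinical Cmax or 10 microM.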

[1] = curve of first compound, second compound 0.1 µM
[2] = curve of first compound, second compound 0.316 µM
[3] = curve of first compound, second compound 1 µM
[4] = curve of first compound, second compound 3.16 µM
[5] = curve of first compound, second compound 10 µM
[6] = second compound 0.1 µM, first compound 0.00316 µM
[7] = second compound 0.1 µM, first compound 0.01 µM
[8] = second compound 0.1 µM, first compound 0.0316 µM
[9] = second compound 0.1 µM, first compound 0.1 µM
[10] = second compound 0.316 µM, first compound 0.00316 µM
[11] = second compound 0.316 µM, first compound 0.01 µM
[12] = second compound 0.316 µM, first compound 0.0316 µM
[13] = second compound 0.316 µM, first compound 0.1 µM
[14] = second compound 1 µM, first compound 0.00316 µM
[15] = second compound 1 µM, first compound 0.01 µM
[16] = second compound 1 µM, first compound 0.0316 µM
[17] = second compound 1 µM, first compound 0.1 µM
[18] = second compound 3.16 µM, first compound 0.00316 µM
[19] = second compound 3.16 µM, first compound 0.01 µM
[20] = second compound 3.16 µM, first compound 0.0316 µM
[21] = second compound 3.16 µM, first compound 0.1 µM
[22] = second compound 10 µM, first compound 0.00316 µM
[23] = second compound 10 µM, first compound 0.01 µM
[24] = second compound 10 µM, first compound 0.0316 µM
[25] = second compound 10 µM, first compound 0.1 µM
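Note: spheroids exposed to agents for seven days.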
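Throughout, for viability, T/C: percent of DMSO vehicle control luminescence viability.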

CC(C)CC(NC(=O)C(Cc1ccccc1)NC(=O)c1cnccn1)B(O)O (centres undefined) + NC1CCC(NC2CC2c2ccccc2)CC1
IC50 [1]: 0.491 nM | IC50 [2]: 0.468 nM | IC50 [3]: 0.509 nM | IC50 [4]: 0.525 nM | IC50 [5]: 0.512 nM | viability, T/C (second compound 0.1 µM, first compound 0.000316 µM): 80.7% | viability, T/C (second compound 0.1 µM, first compound 0.001 µM): 0.24% | viability, T/C [6]: 0.24% | viability, T/C [7]: 0.06% | viability, T/C [8]: 0.05% | viability, T/C [9]: 0.94% | viability, T/C (second compound 0.316 µM, first compound 0.000316 µM): 75.7% | viability, T/C (second compound 0.316 µM, first compound 0.001 µM): 0.23% | viability, T/C [10]: 0.12% | viability, T/C [11]: 0.04% | viability, T/C [12]: 0.07% | viability, T/C [13]: 0.21% | viability, T/C (second compound 1 µM, first compound 0.000316 µM): 84.9% | viability, T/C (second compound 1 µM, first compound 0.001 µM): 0.24% | viability, T/C [14]: 0.06% | viability, T/C [15]: 0.04% | viability, T/C [16]: 0.09% | viability, T/C [17]: 0.2% | viability, T/C (second compound 3.16 µM, first compound 0.000316 µM): 88.1% | viability, T/C (second compound 3.16 µM, first compound 0.001 µM): 0.24% | viability, T/C [18]: 0.12% | viability, T/C [19]: 0.04% | viability, T/C [20]: 0.06% | viability, T/C [21]: 5.74% | viability, T/C (second compound 10 µM, first compound 0.000316 µM): 82.9% | viability, T/C (second compound 10 µM, first compound 0.001 µM): 4.43% | viability, T/C [22]: 0.22% | viability, T/C [23]: 0.39% | viability, T/C [24]: 0.18% | viability, T/C [25]: 0.72%

NC1CC1c1ccc(-c2cccc(O)c2)cc1 (centres undefined)
viability, T/C (compound 0.1 µM): 78.3% | IC50 (compound alone, run of 02/21/2022): > 10000 nM

Nc1ccccc1NC(=O)c1ccc(CNC(=O)OCc2cccnc2)cc1
viability, T/C (compound 0.00949 µM): 105% and 117% | viability, T/C (compound 0.03 µM): 102% and 112% | viability, T/C (compound 0.0949 µM): 83.6% and 104% | viability, T/C (compound 0.3 µM): 56.4% and 70.6% | viability, T/C (compound 0.949 µM): 11.1% and 25.3% | viability, T/C (compound 3 µM): 0.41% and 0.46% | IC50 (curve of compound): 324 nM and 508 nM

CC1COCCN1c1cc(-c2ccnn2C)c2ccnc(-c3ccn[nH]3)c2n1 (centres undefined) + NC1CCC(NC2CC2c2ccccc2)CC1
IC50 [1]: < 3.16 nM | IC50 [2]: < 3.16 nM | IC50 [3]: < 3.16 nM | IC50 [4]: < 3.16 nM | IC50 [5]: < 3.16 nM | viability, T/C [6]: 13.4% | viability, T/C [7]: 12.4% | viability, T/C [8]: 15.4% | viability, T/C [9]: 22.6% | viability, T/C (second compound 0.1 µM, first compound 0.316 µM): 21.1% | viability, T/C (second compound 0.1 µM, first compound 1 µM): 8.33% | viability, T/C [10]: 14.7% | viability, T/C [11]: 18.1% | viability, T/C [12]: 16.6% | viability, T/C [13]: 26.2% | viability, T/C (second compound 0.316 µM, first compound 0.316 µM): 26.8% | viability, T/C (second compound 0.316 µM, first compound 1 µM): 10.4% | viability, T/C [14]: 14.7% | viability, T/C [15]: 14.4% | viability, T/C [16]: 16.7% | viability, T/C [17]: 21.9% | viability, T/C (second compound 1 µM, first compound 0.316 µM): 27.5% | viability, T/C (second compound 1 µM, first compound 1 µM): 8.96% | viability, T/C [18]: 17.2% | viability, T/C [19]: 15.2% | viability, T/C [20]: 17.5% | viability, T/C [21]: 23.5% | viability, T/C (second compound 3.16 µM, first compound 0.316 µM): 28.7% | viability, T/C (second compound 3.16 µM, first compound 1 µM): 8.47% | viability, T/C [22]: 16.8% | viability, T/C [23]: 16.9% | viability, T/C [24]: 16.7% | viability, T/C [25]: 24.8% | viability, T/C (second compound 10 µM, first compound 0.316 µM): 29.1% | viability, T/C (second compound 10 µM, first compound 1 µM): 7.2%
